# According to patent US20250099475A1, “METHODS OF TREATING HYPERTENSION BY PERIODIC SUPPRESSION OF ALDOSTERONE SYNTHASE” (Mineralys Therapeutics, Inc., priority 2022, published 2025):
# How the values were obtained:
# [1] = tested on: hypertensive subjects; experiment: Example 4 dose-ranging study: automated office blood pressure (AOBP); type: in vivo, human; details: for Change in AOBP BPdias, Mean (sem) / Change in AOBP BPsys, Mean (sem): Week 8, Full Analysis Set
# Procedure: A randomized, double-blinded, placebo-controlled, dose-ranging, multicenter study was conducted to evaluate the effect of orally administered Compound A HBr on blood pressure for the treatment of hypertension in male and female subjects ≥18 years of age.
# The study consists of two parts. For enrollment into Part 1 of the study, a subject's value of plasma renin activity (PRA) must be ≤1 ng/mL/h based on morning measurement. If the value of PRA >1 ng/mL/h based on morning measurement, then subjects may be eligible to enter Part 2 of the study.
# For Part 1, 163 enrolled subjects ≥18 years of age were randomized into 6 equal treatment groups (1:1:1:1:1:1) to 12.5 mg BID, 25 mg BID, 12.5 mg QD, 50 mg QD, 100 mg QD, or placebo. After a review of interim clinical data, the 2 lowest dose levels (12.5 mg QD and 12.5 mg BID) were stopped for future randomization due to a lack of consistent meaningful reduction of blood pressure, but the patients randomized to that point remained in the study through completion. Thus, after the review of interim clinical data, subjects were randomized into 4 equal treatment groups (1:1:1:1) to 25 mg BID, 50 mg QD, 100 mg QD, or placebo.
# For Part 2, 36 enrolled subjects ≥18 years of age were randomized (5:1) to either 100 mg QD Compound A HBr or placebo such that the Compound A HBr treatment group consisted of approximately 30 subjects and the placebo treatment group will consist of approximately 6 subjects.
# Subjects orally administered the assigned study drug (Compound A HBr or placebo) according to the assigned dosing regimen for 8 weeks beginning on Study Day 1. All subjects in Part 1 (regardless of dosing group) received BID dosing to preserve the integrity of the blind; active drug is administered as the morning dose for all QD dose groups. Subjects returned to the research facility or were seen by the clinical investigator or approved home health care professional at the end of Study Weeks 1, 2, 3, 4, 5, 6, 7, and 8 (±2 days) for protocol-defined efficacy and safety assessments and procedures, assessment of adverse events (AEs), and confirmation of compliance with study drug usage. Subjects also completed a telephone visit and blood pressure (BP) check at home approximately 3 days post last dose of study drug. Subjects attended up to 14 full clinic visits, including a pre-Screening visit, a Screening/start of Placebo Run-in visit, a second visit during Placebo Run-in, a clinic visit to initiate the ABPM procedure, a Randomization visit, 8 weekly visits during double-blind treatment, and an end-of-study visit scheduled 4 weeks after the last study treatment for final efficacy and safety assessments.
# An automated oscillometric sphygmomanometer device was used to measure the subjects' systolic and diastolic blood pressure in office after approximately 5 minutes of rest in the seated position.
# The primary endpoint is the change in office-measured (mean of last 2 of 5 unattended measurements using an automated oscillometric sphygmomanometer device after approximately 5 minutes of rest in the seated position) systolic blood pressure (SBP) from baseline to the end of Study Week 8.
# [2] = tested on: Sprague Dawley rats; experiment: 13-week repeat-dose oral toxicology study in rats; type: in vivo, rat; details: 13-week daily dosing, doses ≥150 mg/kg/d
# Procedure: (§1) The toxicologic profile of Compound A was assessed in several toxicology studies, including 13-week repeat-dose oral studies in Sprague Dawley rats and cynomolgus monkeys, a standard battery of genotoxicity studies, preliminary embryo-fetal development studies in rats and rabbits, and in vitro and in vivo phototoxicity studies. Rats and monkeys were selected for the general toxicology studies on the basis of pharmacology and metabolism data that indicated these animals would have metabolism similar to that of humans. Studies were performed in accordance with GLP regulations.
# (§2) Doses in the 13-week toxicology studies were 0, 50, 150, 450 (female), and 600 (male) mg/kg/d in Sprague Dawley rats. In cynomolgus monkeys (females and males), the doses were 0, 10, 30, and 100 mg/kg/d. Hematoxylin-and-eosin-stained sections (nominal thickness of approximately 5 μm) were prepared from the formalin-fixed paraffin-embedded organs/tissues of all animals in the toxicology studies.
# [3] = 13-week repeat-dose oral toxicology study in rats; type: in vivo, rat; details: both sexes, Sprague Dawley, rat, in vivo, oral, 13-week, read-out: no observed adverse effect level (NOAEL)
# Procedure: as §1, §2
# [4] = pooled 50 mg QD, 100 mg QD, 12.5 mg BID and 25 mg BID cohorts (N=103)
smiles,measurement,setting,value
CC(=O)N[C@H]1CC[C@H](NC(=O)CN2CCN(c3nncc(-c4ccc(C)cc4)n3)CC2)CC1 [Compound A HBr],"reduction in AOBP systolic BP, placebo-corrected, Full-analysis set","[1]; 100 mg, Part-1 and Part-2 (interim) combined, N=58 active",−9.9 mmHg
same,Difference from placebo in blood pressure change (LS modeled mean),"[1]; Age 65-79, 12.5 mg BID",−1.5 (13)
same,Difference from placebo in blood pressure change (LS modeled mean),"[1]; Age 65-79, 12.5 mg QD",1.1 (10)
same,Difference from placebo in blood pressure change (LS modeled mean),"[1]; Age 65-79, 25 mg BID",−2.4 (15)
same,Difference from placebo in blood pressure change (LS modeled mean),"[1]; Age 65-79, 50 mg QD",−8.8 (13)
same,Difference from placebo in blood pressure change (LS modeled mean),"[1]; Age 65-79, 100 mg QD",−1.6 (18)
same,Difference from placebo in blood pressure change (LS modeled mean),"[1]; Age <65, 12.5 mg BID",−5.4 (6)
same,Difference from placebo in blood pressure change (LS modeled mean),"[1]; Age <65, 12.5 mg QD",−0.3 (10)
same,Difference from placebo in blood pressure change (LS modeled mean),"[1]; Age <65, 25 mg BID",−8.5 (13)
same,Difference from placebo in blood pressure change (LS modeled mean),"[1]; Age <65, 50 mg QD",−10.2 (13)
same,Difference from placebo in blood pressure change (LS modeled mean),"[1]; Age <65, 100 mg QD",−15.7 (8)
same,Difference from placebo in blood pressure change (LS modeled mean),"[1]; Background hypertension therapy 2 medications, 12.5 mg BID",−1.2 (7)
same,Difference from placebo in blood pressure change (LS modeled mean),"[1]; Background hypertension therapy 2 medications, 12.5 mg QD",1.8 (14)
same,Difference from placebo in blood pressure change (LS modeled mean),"[1]; Background hypertension therapy 2 medications, 25 mg BID",1.4 (14)
same,Difference from placebo in blood pressure change (LS modeled mean),"[1]; Background hypertension therapy 2 medications, 50 mg QD",−3.7 (20)
same,Difference from placebo in blood pressure change (LS modeled mean),"[1]; Background hypertension therapy 2 medications, 100 mg QD",−7.5 (14)
same,Difference from placebo in blood pressure change (LS modeled mean),"[1]; Background hypertension therapy 3+ medications, 12.5 mg BID, * p < 0.05",−12.2* (15)
same,Difference from placebo in blood pressure change (LS modeled mean),"[1]; Background hypertension therapy 3+ medications, 12.5 mg QD",−6.0 (9)
same,Difference from placebo in blood pressure change (LS modeled mean),"[1]; Background hypertension therapy 3+ medications, 25 mg BID, * p < 0.05",−15.8* (16)
same,Difference from placebo in blood pressure change (LS modeled mean),"[1]; Background hypertension therapy 3+ medications, 50 mg QD, * p < 0.05",−19.1* (8)
same,Difference from placebo in blood pressure change (LS modeled mean),"[1]; Background hypertension therapy 3+ medications, 100 mg QD",−9.6 (16)
same,Difference from placebo in blood pressure change (LS modeled mean),"[1]; Baseline BPsys High tertile, 12.5 mg BID",−9.7
same,Difference from placebo in blood pressure change (LS modeled mean),"[1]; Baseline BPsys High tertile, 12.5 mg QD",−3.6
same,Difference from placebo in blood pressure change (LS modeled mean),"[1]; Baseline BPsys High tertile, 25 mg BID",−5.6
same,Difference from placebo in blood pressure change (LS modeled mean),"[1]; Baseline BPsys High tertile, 50 mg QD, * p < 0.05",−20.6*
same,Difference from placebo in blood pressure change (LS modeled mean),"[1]; Baseline BPsys High tertile, 100 mg QD",−9.7
same,Difference from placebo in blood pressure change (LS modeled mean),"[1]; Baseline BPsys Low tertile, 12.5 mg BID",3.8
same,Difference from placebo in blood pressure change (LS modeled mean),"[1]; Baseline BPsys Low tertile, 12.5 mg QD",−10.7
same,Difference from placebo in blood pressure change (LS modeled mean),"[1]; Baseline BPsys Low tertile, 25 mg BID",−8.8
same,Difference from placebo in blood pressure change (LS modeled mean),"[1]; Baseline BPsys Low tertile, 50 mg QD",−8.3
same,Difference from placebo in blood pressure change (LS modeled mean),"[1]; Baseline BPsys Low tertile, 100 mg QD",−11.8
same,Difference from placebo in blood pressure change (LS modeled mean),"[1]; Baseline BPsys Middle tertile, 12.5 mg BID",−9.7
same,Difference from placebo in blood pressure change (LS modeled mean),"[1]; Baseline BPsys Middle tertile, 12.5 mg QD",9.3
same,Difference from placebo in blood pressure change (LS modeled mean),"[1]; Baseline BPsys Middle tertile, 25 mg BID",−4.0
same,Difference from placebo in blood pressure change (LS modeled mean),"[1]; Baseline BPsys Middle tertile, 50 mg QD",−11.9
same,Difference from placebo in blood pressure change (LS modeled mean),"[1]; Baseline BPsys Middle tertile, 100 mg QD",−11.8
same,Difference from placebo in blood pressure change (LS modeled mean),"[1]; Gender Female, 12.5 mg BID",−3.79 (14)
same,Difference from placebo in blood pressure change (LS modeled mean),"[1]; Gender Female, 12.5 mg QD",−0.2 (12)
same,Difference from placebo in blood pressure change (LS modeled mean),"[1]; Gender Female, 25 mg BID",−5.18 (19)
same,Difference from placebo in blood pressure change (LS modeled mean),"[1]; Gender Female, 50 mg QD",−11.3 (15)
same,Difference from placebo in blood pressure change (LS modeled mean),"[1]; Gender Female, 100 mg QD",−5.1 (18)
same,Difference from placebo in blood pressure change (LS modeled mean),"[1]; Gender Male, 12.5 mg BID",−13.8 (8)
same,Difference from placebo in blood pressure change (LS modeled mean),"[1]; Gender Male, 12.5 mg QD",−2.3 (11)
same,Difference from placebo in blood pressure change (LS modeled mean),"[1]; Gender Male, 25 mg BID",−9.5 (11)
same,Difference from placebo in blood pressure change (LS modeled mean),"[1]; Gender Male, 50 mg QD",−8.3 (13)
same,Difference from placebo in blood pressure change (LS modeled mean),"[1]; Gender Male, 100 mg QD",−12.4 (12)
same,"reduction in AOBP systolic BP, per-protocol, placebo-corrected",[1]; Part-1 100 mg cohort,−10.3 mmHg
same,Difference from placebo in blood pressure change (LS modeled mean),"[1]; Race Black, 12.5 mg BID",5.57 (7)
same,Difference from placebo in blood pressure change (LS modeled mean),"[1]; Race Black, 12.5 mg QD",6.75 (11)
same,Difference from placebo in blood pressure change (LS modeled mean),"[1]; Race Black, 25 mg BID",−10.1 (7)
same,Difference from placebo in blood pressure change (LS modeled mean),"[1]; Race Black, 50 mg QD",−6.9 (8)
same,Difference from placebo in blood pressure change (LS modeled mean),"[1]; Race Black, 100 mg QD",−7.0 (15)
same,Difference from placebo in blood pressure change (LS modeled mean),"[1]; Race Other, 12.5 mg BID",−14.7 (15)
same,Difference from placebo in blood pressure change (LS modeled mean),"[1]; Race Other, 12.5 mg QD",−7.5 (12)
same,Difference from placebo in blood pressure change (LS modeled mean),"[1]; Race Other, 25 mg BID",−7.2 (23)
same,Difference from placebo in blood pressure change (LS modeled mean),"[1]; Race Other, 50 mg QD",−12.1 (20)
same,Difference from placebo in blood pressure change (LS modeled mean),"[1]; Race Other, 100 mg QD",−9.2 (15)
same,"Change in AOBP BPdias, Mean (sem)",[1]; 12.5 mg BID,−6.1 (1.8) mmHg
same,"Change in AOBP BPsys, Mean (sem)",[1]; 12.5 mg BID,−11.3 (3.1) mmHg
same,"Change in AOBP BPdias, Mean (sem)",[1]; 12.5 mg QD,−6.1 (1.8) mmHg
same,"Change in AOBP BPsys, Mean (sem)",[1]; 12.5 mg QD,−5.7 (3.1) mmHg
same,"Change in AOBP BPdias, Mean (sem)",[1]; 25 mg BID,−3.83 (2.1) mmHg
same,"Change in AOBP BPsys, Mean (sem)",[1]; 25 mg BID,−11.0 (2.6) mmHg
same,"Change in AOBP BPdias, Mean (sem)",[1]; 50 mg QD,−8.1 (1.7) mmHg
same,"Change in AOBP BPsys, Mean (sem)",[1]; 50 mg QD,−13.9 (2.6) mmHg
same,"Change in AOBP BPdias, Mean (sem)",[1]; 100 mg QD,−4.76 (1.5) mmHg
same,"Change in AOBP BPsys, Mean (sem)",[1]; 100 mg QD,−12.2 (2.7) mmHg
same,mean reduction in AOBP measured systolic BP,[1]; doses of 50 mg and 100 mg QD,−11 to −13 mmHg
same,subjects with a change in BPsys >−15 mmHg,[1]; [4],41%
same,subjects with a change in BPsys >−25 mmHg,[1]; [4],25%
same,subjects who achieved >−23 mmHg fall in systolic blood pressure,"[1]; week 8, pooled 50 mg QD, 100 mg QD, 12.5 mg BID, 25 mg BID cohorts",25%
same,mean reduction in systolic blood pressure in the highest response quartile,"[1]; week 8, pooled cohorts",−33.4+1.5 mmgHg
same,subjects who achieved a ≥15 mmHg fall in systolic blood pressure,"[1]; week 8, pooled cohorts",41%
CC(=O)N[C@H]1CC[C@H](NC(=O)CN2CCN(c3nncc(-c4ccc(C)cc4)n3)CC2)CC1 [Compound A],histopathological findings,[2],vacuolation of zona fasciculata cells and hypertrophy of zona glomerulosa cells in the adrenal glands
same,NOAEL at 13 weeks,[3],50 mg/kg/day
